What was measured:
GAG in the matrix = test: Suppression of reduction in GAG in the matrix caused by stimulation of interleukin-1 or the like
[1] = test system: Crj: CD-1 (ICR) male mice; test: Acute toxicity of esculetin derivatives, mice; settings: mouse, in vivo
Experimental: (§1) The toxicity of the esculetin derivatives of the present invention was examined. Typical examples of the present derivatives were administered orally at a dose of 2000 mg/kg (body weight) to male mice and male rats which were then observed for seven days. No deaths and no remarkable toxicity were observed. The esculetin derivatives of the present invention are extremely safe compounds (see Example 27).
(§2) The acute toxicity of the present substance was examined using Crj: CD-1 (ICR) male mice (6 weeks old) and Wistar male rats (6 weeks old). 6-(β-2-acetoamide-2-deoxy-D-glucopyranosyloxy)-7-hydroxycoumarin [Ib-2] […] No deaths were observed. […] In the experiments, two animals were used for each group.

Wistar male rats = test: Acute toxicity of esculetin derivatives, rats; settings: rat, in vivo
Experimental: as §1, §2

For Cc1cc(=O)oc2cc(O)c(O)cc12 [4-methylesculetin], the “suppression of the reduction in GAG in the matrix” value (GAG in the matrix) was “strongly suppress the reduction in the GAG in the matrix”.

CC(=O)N[C@H]1[C@H](Oc2cc3ccc(=O)oc3cc2O)O[C@H](CO)[C@@H](O)[C@@H]1O [Ib-2] was tested, and the deaths [1] was “No deaths” and the deaths (Wistar male rats) was “No deaths”.

For O=c1ccc2cc(O)c(O)cc2o1 [esculetin], the “suppression of the reduction in GAG in the matrix” value (GAG in the matrix) was “strongly suppress the reduction in the GAG in the matrix”.
